Where a SMILES comes first, the peptide text is derived from it. [ ]: non-standard residue; d: D form.
Assays:
[1] = system: HEK293 cells; experiment: Binding of I125-API-101.10 in HEK293 cells not containing IL-1R
From the text: Thymocytes freshly isolated from rat thymus were resuspended at a concentration of 10^7 cell/ml in PBS (phosphate buffered saline) buffer pH 8.0 (reaction buffer) and washed three times with ice-cold reaction buffer. The reaction mixture for each sample contained: 10^6 cells and 10^7 cpm of 125API-101.10. One sample also contained […] of cold API-101.10 peptide. In the negative control HEK-293 cells containing a negligible amount of IL-1R were used. Each sample volume was then raised to 250 μl with reaction buffer. Samples were incubated at room temperature and/or 37° for 45 minutes to allow peptide binding. The non-permeable cross-linker BS3 (Bis(sulfosuccinimidyl)suberate) was then added to a final concentration of 2.5 mM and samples were incubated at 4° C. for 30 minutes to minimize active internalization of BS3 (11.4 Å) (Pierce) (Partis, J. Prot. Chem. 293:263-277, 1983; Cox et al., J. Immunol. 145:1719-1726, 1990; and Knoller et al., J. Biol. Chem. 266:2795-2804, 1991). The reaction was quenched with 20 mM TRIS pH 7.5 for 15 minutes at room temperature. Cells were centrifuged at 4000 rpm for 10 minutes, lysed for 30 minutes on ice with 150 μl of RIPA buffer (50 mM Tris HCl pH7.4; 150 mM NaCl; 1 mM EDTA; 2 mM Na3VO4; 1 mM NaF; 1% NP-40; 0.25% Nadeoxycholate). […] Radioactivity was determined is every cell lysate with a Packard CobraII autogamma counter.

[2] = biological target: T1, IL-1R/IL-1RacP (Sus scrofa, UniProt A0A5G2QSI4); experiment: Vasomotricity of piglet pial vessels (IL-1β induced vasodilation); details: vasodilation induced by IL-1
T1 construct: Slices of brain exposing the pial vessels; from tissue; host or cells: piglet brain slices, pial vessels
T1 sequence (A0A5G2QSI4 21-572): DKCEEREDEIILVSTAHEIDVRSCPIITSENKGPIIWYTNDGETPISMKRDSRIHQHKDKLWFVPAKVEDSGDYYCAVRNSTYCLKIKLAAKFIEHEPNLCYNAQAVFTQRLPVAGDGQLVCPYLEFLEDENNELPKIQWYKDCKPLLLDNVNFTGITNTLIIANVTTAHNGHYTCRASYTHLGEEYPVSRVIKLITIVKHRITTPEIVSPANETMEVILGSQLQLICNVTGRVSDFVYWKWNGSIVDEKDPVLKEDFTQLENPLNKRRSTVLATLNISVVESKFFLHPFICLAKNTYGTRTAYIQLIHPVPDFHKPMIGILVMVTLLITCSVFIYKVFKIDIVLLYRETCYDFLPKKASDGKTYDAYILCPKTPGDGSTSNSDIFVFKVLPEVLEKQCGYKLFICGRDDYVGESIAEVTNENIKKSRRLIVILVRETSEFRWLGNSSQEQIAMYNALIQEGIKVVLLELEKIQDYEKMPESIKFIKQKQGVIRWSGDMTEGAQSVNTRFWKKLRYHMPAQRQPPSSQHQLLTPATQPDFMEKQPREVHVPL
Description: In another experiment, vasomotricity variation of piglets pial vessels was studied to further evaluate the particular effect of cytokine receptor subfragments on the vasodilatator effect of IL-1β. Brains were dissected from Yorkshire piglets. Slices of brain exposing the pial vessels were pinned to a wax base of a 20 ml bath containing Krebs buffer (pH 7.4) equilibrated with 95% O2-5% CO2 and maintained at 37° C. Microvessels were visualized and recorded using a video camera mounted on a dissecting microscope. Vascular diameter was measured using a digital image analyzer and the images were recorded before and after topical application of constricting agent U46619 at 10^−7M. After stabilization of the vasomotricity, IL-1 ? was added until stabilization of vasodilatation. Peptides were then injected at different concentrations from 10^−10 to 10^−5M. Reversal of vasodilatation (i.e., vasoconstriction) was visualized and measured as described above. IL-1 ? induced vasodilatation in the microvasculature of the piglet brain was observed. Examples of the inhibitory activity of cytokine subfragment peptides are given below.

potency relative to API-101 [2]: 100 fold
Compound: CC(C)C[C@@H](NC(=O)[C@@H](CCC(=O)O)NC(=O)[C@H](NC(=O)[C@H](NC(=O)[C@@H](Cc1ccc(O)cc1)NC(=O)[C@H](N)CCCNC(=N)N)[C@H](C)O)C(C)C)C(=O)N[C@H](C)C(N)=O [API-101.10, RYTVELA] (H-[dR][dY][dT][dV][dE][dL][dA]-NH2; N-terminus and C-terminus assumed)
binding in cells not containing IL-1R [1]: does not occur
